According to ChEMBL document CHEMBL4177736, “Monoterpene indole alkaloid azine derivatives as MDR reversal agents” (Bioorg Med Chem, 2018):
The source made the active and inactive calls. No cut-off for these calls is given here.

Tests used:
[1] = test system: BHK-21; experiment: Cytotoxicity against MRP1-expressing BHK21 cells assessed as growth inhibition at 20 uM after 72 hrs by MTT assay; type: functional; conditions: Mesocricetus auratus; for inhibition of growth at 20 µM: BHK-21, 72 h, read-out: GI
[2] = test system: BHK-21; experiment: Cytotoxicity against wild type BHK21 cells assessed as reduction in cell viability at 20 uM after 72 hrs by MTT assay; type: cell-based, Mesocricetus auratus; conditions: hamster, bhk-21, 72 h
[3] = test system: NIH3T3; experiment: Cytotoxicity against MDR1-expressing mouse NIH/3T3 cells assessed as growth inhibition at 20 uM after 72 hrs by MTT assay; type: functional, cell-based
[4] = test system: NIH3T3; experiment: Cytotoxicity against mouse NIH/3T3 cells assessed as reduction in cell viability at 20 uM after 72 hrs by MTT assay; type: cell-based; conditions: nih3t3, 72 h
[5] = test system: BHK-21; experiment: Cytotoxicity against MRP1-expressing BHK21 cells assessed as cell death after 72 hrs by MTT assay; type: functional, cell-based; conditions: Mesocricetus auratus, BHK-21, 72 h
[6] = molecular target: T1, MRP1 (Homo sapiens, UniProt P33527); experiment: (§1) Inhibition of MRP1 (unknown origin) expressed in BHK21 cells assessed as GSH efflux at 20 uM incubated for 3 hrs measured every 30 secs for 2 mins by GSH reductase enzyme based assay (reference value: 100%); type: cell-based; conditions: BHK21 cells expressing MRP1, probe GSH
T1 sequence (P33527 whole entry): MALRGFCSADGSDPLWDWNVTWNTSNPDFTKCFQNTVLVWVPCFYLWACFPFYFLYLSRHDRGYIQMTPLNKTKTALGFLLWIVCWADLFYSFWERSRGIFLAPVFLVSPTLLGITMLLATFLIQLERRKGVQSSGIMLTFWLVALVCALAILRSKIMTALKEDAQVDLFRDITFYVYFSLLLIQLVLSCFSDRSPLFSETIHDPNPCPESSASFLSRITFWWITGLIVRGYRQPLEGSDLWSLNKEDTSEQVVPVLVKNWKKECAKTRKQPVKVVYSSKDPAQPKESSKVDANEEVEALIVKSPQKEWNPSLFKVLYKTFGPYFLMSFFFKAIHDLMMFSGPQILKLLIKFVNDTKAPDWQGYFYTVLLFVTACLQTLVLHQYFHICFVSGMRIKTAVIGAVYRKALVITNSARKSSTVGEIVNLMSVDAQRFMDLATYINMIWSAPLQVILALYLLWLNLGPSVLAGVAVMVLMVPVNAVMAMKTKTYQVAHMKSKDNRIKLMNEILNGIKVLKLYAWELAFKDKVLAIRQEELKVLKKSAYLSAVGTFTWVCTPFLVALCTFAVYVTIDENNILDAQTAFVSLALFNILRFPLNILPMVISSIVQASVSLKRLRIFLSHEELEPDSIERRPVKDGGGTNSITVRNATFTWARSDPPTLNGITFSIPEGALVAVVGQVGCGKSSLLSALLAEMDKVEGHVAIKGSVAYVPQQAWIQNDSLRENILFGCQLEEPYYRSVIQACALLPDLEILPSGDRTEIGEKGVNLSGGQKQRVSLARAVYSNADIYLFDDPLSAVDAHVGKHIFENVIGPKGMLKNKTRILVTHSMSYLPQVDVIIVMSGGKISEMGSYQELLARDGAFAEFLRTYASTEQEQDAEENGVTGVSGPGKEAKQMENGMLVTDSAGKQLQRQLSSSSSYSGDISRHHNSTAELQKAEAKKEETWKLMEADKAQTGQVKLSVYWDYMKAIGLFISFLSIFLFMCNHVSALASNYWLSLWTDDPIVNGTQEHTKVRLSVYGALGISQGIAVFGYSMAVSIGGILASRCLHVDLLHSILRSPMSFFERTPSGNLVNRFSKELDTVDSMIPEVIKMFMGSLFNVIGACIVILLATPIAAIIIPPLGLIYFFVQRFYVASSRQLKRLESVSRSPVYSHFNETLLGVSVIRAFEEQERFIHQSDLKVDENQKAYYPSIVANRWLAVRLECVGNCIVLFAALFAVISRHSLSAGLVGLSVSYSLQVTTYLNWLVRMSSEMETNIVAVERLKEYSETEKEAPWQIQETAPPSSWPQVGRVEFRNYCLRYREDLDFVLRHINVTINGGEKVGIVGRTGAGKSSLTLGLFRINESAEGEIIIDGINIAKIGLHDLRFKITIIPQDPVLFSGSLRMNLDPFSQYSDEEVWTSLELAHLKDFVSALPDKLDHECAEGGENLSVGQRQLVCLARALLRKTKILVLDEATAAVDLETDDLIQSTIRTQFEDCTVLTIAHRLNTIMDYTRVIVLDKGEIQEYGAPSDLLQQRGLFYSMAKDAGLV

[7] = test system: BHK-21; experiment: Resistance ratio of EC50 for MRP1-expressing BHK21 cells to EC50 for wild type BHK21 cells; type: functional, Mesocricetus auratus
[8] = molecular target: T1, MRP1; experiment: Inhibition of MRP1 (unknown origin) expressed in HEK293FlpIN cells assessed as reduction in calcein-AM efflux at 20 uM incubated for 30 mins by flow cytometric analysis relative to control; type: cell-based; conditions: HEK293FlpIN cells expressing MRP1, probe calcein-AM
[9] = Inhibition of P-gp (unknown origin) expressed in mouse NIH/3T3 cells assessed as reduction in rhodamine 123 efflux at 20 uM incubated for 30 mins by flow cytometric analysis relative to control; type: cell-based; conditions: Homo sapiens
[10] = molecular target: T2, BCRP (ABCG2) (Homo sapiens, UniProt Q9UNQ0); experiment: Inhibition of BCRP (unknown origin) expressed in HEK293 cells assessed as reduction in mitoxantrone efflux at 20 uM incubated for 30 mins by flow cytometric analysis relative to control; type: cell-based; conditions: HEK293 cells expressing BCRP, probe mitoxantrone
T2 sequence (Q9UNQ0 whole entry): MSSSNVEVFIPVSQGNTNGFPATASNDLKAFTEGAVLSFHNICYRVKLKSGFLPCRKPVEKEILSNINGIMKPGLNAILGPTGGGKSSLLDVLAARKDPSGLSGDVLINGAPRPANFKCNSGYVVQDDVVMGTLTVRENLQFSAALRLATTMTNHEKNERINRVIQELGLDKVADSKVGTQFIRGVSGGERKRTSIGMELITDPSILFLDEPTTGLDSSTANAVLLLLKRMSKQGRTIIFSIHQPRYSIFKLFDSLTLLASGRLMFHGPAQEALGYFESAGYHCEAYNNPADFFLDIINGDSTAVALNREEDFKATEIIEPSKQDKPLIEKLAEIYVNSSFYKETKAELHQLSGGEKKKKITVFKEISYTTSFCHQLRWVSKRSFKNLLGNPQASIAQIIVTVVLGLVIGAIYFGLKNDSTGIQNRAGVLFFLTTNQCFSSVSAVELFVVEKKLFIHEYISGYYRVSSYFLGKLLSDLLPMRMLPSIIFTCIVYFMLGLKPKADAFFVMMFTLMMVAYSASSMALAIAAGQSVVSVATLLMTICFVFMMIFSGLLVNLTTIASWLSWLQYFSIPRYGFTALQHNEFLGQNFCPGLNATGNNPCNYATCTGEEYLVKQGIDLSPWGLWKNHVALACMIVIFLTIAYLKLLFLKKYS

[11] = molecular target: T3, Multidrug resistance-associated protein 1 (Homo sapiens, UniProt P33527); experiment: as §1; type: cell-based; conditions: 3 h, 20 µM
T3 sequence (P33527 whole entry): as the sequence (P33527 whole entry) above

[12] = molecular target: T3, Multidrug resistance-associated protein 1; experiment: Inhibition of MRP1 (unknown origin) expressed in HEK293FlpIN cells assessed as reduction in calcein-AM efflux incubated for 30 mins by flow cytometric analysis; type: cell-based

CC[C@H]1CN(C)[C@H]2Cc3c([nH]c4ccccc34)/C(=N/N=C\C(C)(C)C)C[C@H]1[C@H]2C(=O)OC
growth inhibition (GI) [1]: Active
Activity [2]: Non-Toxic
growth inhibition (GI) [3]: Active
Activity [4]: Non-Toxic
EC50 [5]: 32 µM
inhibition at 3 h, 20 µM [6]: 63 to 75%
Ratio EC50 [7]: 0.74
inhibition at 0.5 h, 20 µM [8]: 15.9%
inhibition [9]: 10.3%
inhibition at 0.5 h, 20 µM [10]: 2.4%

CC[C@@H]1CN(C)[C@H]2Cc3c([nH]c4ccccc34)/C(=N/N=C\c3cccc(Cl)c3)C[C@H]1[C@H]2C(=O)OC
inhibition of growth at 20 µM [1]: 90 to 98%
Activity [2]: Non-Toxic
growth inhibition (GI) [3]: Active
Activity [4]: Non-Toxic
inhibition at 0.5 h, 20 µM [8]: 10.8%
inhibition [9]: 20.2%
inhibition at 0.5 h, 20 µM [10]: -1.3%

CC[C@@H]1CN(C)[C@H]2Cc3c([nH]c4ccccc34)/C(=N/N=C\C3CCCC3)C[C@H]1[C@H]2C(=O)OC
growth inhibition (GI) [3]: Active
Activity [4]: Non-Toxic
inhibition at 0.5 h, 20 µM [8]: 19.1%
inhibition [9]: 2.7%
inhibition at 0.5 h, 20 µM [10]: -2.3%

CC[C@H]1CN(C)[C@H]2Cc3c([nH]c4ccccc34)/C(=N/N=C\c3cccc(Cl)c3)C[C@H]1[C@H]2C(=O)OC
inhibition of growth at 20 µM [1]: 90 to 98%
Activity [2]: Non-Toxic
growth inhibition (GI) [3]: Active
Activity [4]: Non-Toxic
inhibition at 0.5 h, 20 µM [8]: 13.6%
inhibition [9]: 21.4%
inhibition at 0.5 h, 20 µM [10]: -2.4%

CC[C@H]1CN(C)[C@H]2Cc3c([nH]c4ccccc34)/C(=N/N=C\c3cccc(Br)c3)C[C@H]1[C@H]2C(=O)OC
inhibition of growth at 20 µM [1]: 90 to 98%
Activity [2]: Non-Toxic
growth inhibition (GI) [3]: Active
Activity [4]: Non-Toxic
inhibition at 0.5 h, 20 µM [8]: 12.8%
inhibition [9]: 28.6%
inhibition at 0.5 h, 20 µM [10]: -3.1%

CC[C@@H]1CN(C)[C@H]2Cc3c([nH]c4ccccc34)/C(=N/N=C\c3ccc[nH]3)C[C@H]1[C@H]2C(=O)OC
growth inhibition (GI) [3]: Active
Activity [4]: Non-Toxic
inhibition at 0.5 h, 20 µM [8]: 15.2%
inhibition [9]: 4.5%
inhibition at 0.5 h, 20 µM [10]: 3.7%

CCC(/C=N\N=C1/C[C@@H]2[C@@H](CC)CN(C)[C@@H](Cc3c1[nH]c1ccccc31)[C@@H]2C(=O)OC)CC
growth inhibition (GI) [1]: Active
Activity [2]: Non-Toxic
growth inhibition (GI) [3]: Active
Activity [4]: Non-Toxic
EC50 [5]: 18 µM
inhibition at 3 h, 20 µM [6]: 63 to 75%
Ratio EC50 [7]: 0.63
inhibition at 0.5 h, 20 µM [8]: 30.3%
inhibition [9]: 26.5%
inhibition at 0.5 h, 20 µM [10]: 8.2%

CC[C@H]1CN(C)[C@H]2Cc3c([nH]c4ccccc34)/C(=N/N=C\C3CCCC3)C[C@H]1[C@H]2C(=O)OC
growth inhibition (GI) [3]: Active
Activity [4]: Non-Toxic
inhibition at 0.5 h, 20 µM [8]: 35.5%
inhibition [9]: 30.3%
inhibition at 0.5 h, 20 µM [10]: 0.8%

CC[C@H]1CN(C)[C@H]2Cc3c([nH]c4ccccc34)/C(=N/N=C\C=C\c3ccccc3)C[C@H]1[C@H]2C(=O)OC
inhibition of growth at 20 µM [1]: 90 to 98%
Activity [2]: Non-Toxic
growth inhibition (GI) [3]: Active
Activity [4]: Non-Toxic
inhibition at 0.5 h, 20 µM [8]: 20.3%
inhibition [9]: 45.8%
inhibition at 0.5 h, 20 µM [10]: -0.3%

CC[C@@H]1CN(C)[C@H]2Cc3c([nH]c4ccccc34)/C(=N/N=C\c3cccc(Br)c3)C[C@H]1[C@H]2C(=O)OC
inhibition of growth at 20 µM [1]: > 90%
Activity [2]: Non-Toxic
growth inhibition (GI) [3]: Active
Activity [4]: Non-Toxic
EC50 [5]: 16.5 µM
inhibition (INH) [11]: Not Active
Ratio EC50 [7]: 0.73
inhibition at 0.5 h, 20 µM [8]: 12%
inhibition [9]: 11.4%
inhibition at 0.5 h, 20 µM [10]: -2.4%

CC[C@H]1CN(C)[C@H]2Cc3c([nH]c4ccccc34)/C(=N/N=C\c3ccc(O)c(OC)c3)C[C@H]1[C@H]2C(=O)OC
inhibition of growth at 20 µM [1]: 90 to 98%
Activity [2]: Non-Toxic
growth inhibition (GI) [3]: Active
Activity [4]: Non-Toxic
inhibition at 0.5 h, 20 µM [8]: 80.7%
inhibition [9]: 38.6%
inhibition at 0.5 h, 20 µM [10]: 10.5%
IC50 [12]: > 1 µM
inhibition (INH) ([12]; human, 0.5 h): Dose-dependent effect

CC[C@@H]1CN(C)[C@H]2Cc3c([nH]c4ccccc34)/C(=N/N=C\c3ccccc3[N+](=O)[O-])C[C@H]1[C@H]2C(=O)OC
inhibition of growth at 20 µM [1]: 90 to 98%
Activity [2]: Non-Toxic
growth inhibition (GI) [3]: Active
Activity [4]: Non-Toxic
inhibition at 0.5 h, 20 µM [8]: 14.6%
inhibition [9]: 42.9%
inhibition at 0.5 h, 20 µM [10]: -0.1%

CC[C@H]1CN(C)[C@H]2Cc3c([nH]c4ccccc34)/C(=N/N=C\c3ccccc3[N+](=O)[O-])C[C@H]1[C@H]2C(=O)OC
growth inhibition (GI) [3]: Active
Activity [4]: Non-Toxic
inhibition at 0.5 h, 20 µM [8]: 29.5%
inhibition [9]: 57.4%
inhibition at 0.5 h, 20 µM [10]: 4.5%

CC[C@H]1CN(C)[C@H]2Cc3c([nH]c4ccccc34)/C(=N/N=C\c3ccc([N+](=O)[O-])cc3)C[C@H]1[C@H]2C(=O)OC
inhibition of growth at 20 µM [1]: 90 to 98%
Activity [2]: Non-Toxic
growth inhibition (GI) [3]: Active
Activity [4]: Non-Toxic
inhibition at 0.5 h, 20 µM [8]: 47.5%
inhibition [9]: 7.5%
inhibition at 0.5 h, 20 µM [10]: 2.2%

CC[C@@H]1CN(C)[C@H]2Cc3c([nH]c4ccccc34)/C(=N/N=C\C(C)(C)C)C[C@H]1[C@H]2C(=O)OC
growth inhibition (GI) [1]: Active
Activity [2]: Non-Toxic
growth inhibition (GI) [3]: Active
Activity [4]: Non-Toxic
EC50 [5]: 57 µM
inhibition at 3 h, 20 µM [6]: 63 to 75%
Ratio EC50 [7]: 0.83
inhibition at 0.5 h, 20 µM [8]: 2.5%
inhibition [9]: 3.1%
inhibition at 0.5 h, 20 µM [10]: 1.3%

CC[C@@H]1CN(C)[C@H]2Cc3c([nH]c4ccccc34)/C(=N/N=C\c3ccc([N+](=O)[O-])cc3)C[C@H]1[C@H]2C(=O)OC
inhibition of growth at 20 µM [1]: > 90%
Activity [2]: Non-Toxic
growth inhibition (GI) [3]: Active
Activity [4]: Non-Toxic
inhibition at 0.5 h, 20 µM [8]: 23.4%
inhibition [9]: 14.7%
inhibition at 0.5 h, 20 µM [10]: 2.9%

CC[C@H]1CN(C)[C@H]2Cc3c([nH]c4ccccc34)/C(=N/N=C\c3ccc[nH]3)C[C@H]1[C@H]2C(=O)OC
inhibition of growth at 20 µM [1]: > 70%
Activity [2]: Non-Toxic
growth inhibition (GI) [3]: Active
Activity [4]: Non-Toxic
inhibition at 3 h, 20 µM [6]: 63 to 75%
inhibition at 0.5 h, 20 µM [8]: 56%
inhibition [9]: 27.6%
inhibition at 0.5 h, 20 µM [10]: 13.5%

CCC(/C=N\N=C1/C[C@@H]2[C@H](CC)CN(C)[C@@H](Cc3c1[nH]c1ccccc31)[C@@H]2C(=O)OC)CC
growth inhibition (GI) [1]: Active
Activity [2]: Non-Toxic
growth inhibition (GI) [3]: Active
Activity [4]: Non-Toxic
EC50 [5]: 27.5 µM
inhibition at 3 h, 20 µM [6]: 63 to 75%
Ratio EC50 [7]: 0.81
inhibition at 0.5 h, 20 µM [8]: 26.4%
inhibition [9]: 2.8%
inhibition at 0.5 h, 20 µM [10]: 0.9%

CC[C@@H]1CN(C)[C@H]2Cc3c([nH]c4ccccc34)/C(=N/N=C\C=C\c3ccccc3)C[C@H]1[C@H]2C(=O)OC
inhibition of growth at 20 µM [1]: > 90%
Activity [2]: Non-Toxic
growth inhibition (GI) [3]: Active
Activity [4]: Non-Toxic
inhibition (INH) [11]: Not Active
inhibition at 0.5 h, 20 µM [8]: 10%
inhibition [9]: 26.7%
inhibition at 0.5 h, 20 µM [10]: -2%
